Experimental findings from PubChem BioAssay AID179 (DTP/NCI, 2004) are described below.

The subject of the assay is CEM cells HIV-1 protection, formazan growth assay. The assay is described as follows: NCI AIDS Antiviral Assay. Particulars: for IC50: measured here: growth of uninfected CEM cells. The method in brief: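 Protection of CEM cells against HIV-1 was scored from cell growth (soluble formazan) across five concentrations, with parallel uninfected cells. Lack of protection may reflect toxicity.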

Calls of active or inactive are those of the source.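 How the source made its calls: active means compounds giving half or more protection of infected cells from virus-caused growth loss, again on retest; inactive means the rest.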

As for `CC1CC(OP(=O)(OCc2ccccc2)OCc2ccccc2)[C@@H](OCc2ccccc2)C(OCc2ccccc2)C1OCc1ccccc1` (stereo partly drawn), the EC50 – broadly, the concentration giving half of the maximal effect – is > 100 µM and the IC50 – broadly, the midpoint of a concentration-inhibition curve – is > 100 µM.

On to `NC(=O)c1ccccc1NC(=O)C(=O)C(c1cnc2ccc([N+](=O)[O-])cc2n1)[N+](=O)[O-]` (stereo not drawn), for which the EC50 is > 61.7 µM and the IC50 is > 61.7 µM.

Regarding `CN(C)CC1CCCC/C1=N/OC(=O)c1ccc(Cl)cc1` (stereo not drawn), the outcome was inactive.

On to `CC(C)(C)CC(C)(C)c1cc2c(O)c(c1)Cc1cc(C(C)(C)CC(C)(C)C)cc(c1O)Cc1cc(C(C)(C)CC(C)(C)C)cc(c1O)Cc1cc(C(C)(C)CC(C)(C)C)cc(c1O)Cc1cc(C(C)(C)CC(C)(C)C)cc(c1O)Cc1cc(C(C)(C)CC(C)(C)C)cc(c1O)C2`, for which the EC50 was > 7.24 µM and the IC50 is > 7.24 µM.

In the case of `COc1ccc2c(=O)c3c([nH]c2c1)OCC3=O`, the EC50 was > 100 µM and the IC50 is > 100 µM.

As for `CCN(CC)CC[NH-].O=C([O-])[O-].O=C([O-])[O-].[Co+3].[K+]`, the EC50 was > 200 µM and the IC50 came to 18.6 µM.

As to `CCCCCOC(=O)c1cccc(NC(=O)CN(CC)CC)c1`, the EC50 is > 200 µM and the IC50 was 95.5 µM.

Consider `CCCCCCC(O)C/C=C/CCCCCC/C(C(=O)OC)=C(/O)C(=O)OCC` (stereo not drawn), for which the EC50 is > 83.2 µM and the IC50 was > 83.2 µM.

For `CC(=O)OC1C[C@@H](C)C2(CC(c3ccoc3)OC2=O)C2CCC(O)C3(CO3)C12CO` (stereo partly drawn), the EC50 was > 200 µM and the IC50 was > 200 µM.

For `O=[N+]([O-])c1ccc2nc3ccscc-3c2c1`, the EC50 was > 15.5 µM and the IC50 was determined as 2.88 µM.

With `CCCOc1csc([C@H]2CCC3[C@@H]4CC=C5C[C@@H](OC(C)=O)CC[C@]5(C)C4CC[C@@]32C)n1` (stereo partly drawn), the EC50 was > 55 µM and the IC50 is > 55 µM.

Turning to `COc1ccc(/C=C2\N=C(c3ccccc3)N(N=C3NC(=O)CC(=O)N3)C2=O)cc1`, the EC50 is > 200 µM and the IC50 is > 200 µM.

Turning to `Cn1c(=O)c2c(nc3n2CCC(=O)N3CCCCl)n(C)c1=O`, the EC50 is > 200 µM and the IC50 was 166 µM.

On to `O=C(NO)NCCCl`, for which the EC50 is > 200 µM and the IC50 is > 200 µM.

For `O=C(C[n+]1ccccc1)N/N=C(/CCC(=O)N(Cc1ccccc1)Cc1ccccc1)CC(=O)c1ccccc1`, the EC50 was > 437 µM and the IC50 was > 437 µM.

Consider `CC(=O)Oc1c(C)c2c(c3ncccc13)OC(C)C2` (stereo not drawn), for which the EC50 is > 200 µM and the IC50 was 3.16 µM.

Regarding `c1ccc(C2OCCO2)c(OCCOc2cc(OCCOc3ccccc3C3OCCO3)c(OCCOc3ccccc3C3OCCO3)cc2OCCOc2ccccc2C2OCCO2)c1`, the EC50 was > 7.94 µM and the IC50 is > 7.94 µM.

Regarding `CN(C)c1ccc(C(c2c(O)c3ccc(O)cc3oc2=O)c2c(O)c3ccc(O)cc3oc2=O)cc1`, the EC50 is > 200 µM and the IC50 turned out to be 30.2 µM.

On to `Cc1ccc(S(=O)OCC23CC4CC(CC(C4)C2)C3)cc1` (stereo not drawn), for which the outcome was inactive.

For `O=C1C2c3[nH]c4ccccc4c3C3CCSCC3C2C(=O)N1c1ccccc1` (stereo not drawn), the result was inactive.

With `COc1ccc(/C=N/Nc2ccc(S(=O)(=O)O)cc2)cc1`, the EC50 is > 759 µM and the IC50 is 331 µM.

As for `O=CN1CCN(c2ccc3ccc(=O)[nH]c3n2)CC1`, the EC50 was > 200 µM and the IC50 is > 200 µM.

As for `[N-]=[N+]=NC[C@H]1OCO[C@H](CN=[N+]=[N-])[C@@H](OCCOCCCl)[C@@H]1OCCOCCCl`, the EC50 is > 200 µM and the IC50 was 148 µM.

As for `CC1(C)Oc2ccc3c(=O)c(-c4ccccc4)c(-c4ccccc4)oc3c2C1C(=O)O` (stereo not drawn), the EC50 is > 200 µM and the IC50 turned out to be 72.4 µM.

As to `CCC[CH2][Sn]([CH2]CCC)([O]N(C)C(=O)c1ccc(Br)cc1)[O]N(C)C(=O)c1ccc(Br)cc1`, the EC50 is > 10.5 µM and the IC50 was determined as 1.78 µM.

On to `COC(=O)CSc1nnc(CSc2ccc(Cl)cc2)n1-c1ccccc1`, for which the EC50 is > 200 µM and the 50% inhibitory concentration (IC50) is 105 µM.

Consider `OC1=C2CCCCCC2=[N+]2CCCCC2C1` (stereo not drawn), for which the EC50 is > 200 µM and the IC50 is > 200 µM.

For the compound `c1ccc2c(c1)Nc1nsnc1N2`, the EC50 was > 27.5 µM and the IC50 worked out at 7.08 µM.

Turning to `NS(=O)(=O)c1ccc(NC(=S)/N=C\c2c(O)[nH]c(=O)[nH]c2=O)cc1`, the EC50 is > 200 µM and the IC50 is > 200 µM.

As to `CCN(CC)C1=CC(=O)c2nc(C)c(C)nc2C1=O`, the outcome was inactive.

In the case of `CCN(CC)CCS(=O)c1c2cc(OC)ccc2nc2ccc(OC)cc12` (stereo not drawn), the EC50 is > 200 µM and the IC50 came to 3.39 µM.

With `O=[N+]([O-])c1ccc(OP(=O)(O)OCC2OC(CP(=O)(O)O)C(O)C2O)cc1` (stereo not drawn), the EC50 was > 200 µM and the IC50 is > 200 µM.

In the case of `C=C(C)C1CC[C@@](C)(O)[C@H](C#N)C1` (stereo partly drawn), the EC50 is > 200 µM and the IC50 is > 200 µM.

Consider `COC(=O)C1CN=CN1CCc1ccccc1` (stereo not drawn), for which the EC50 is > 200 µM and the IC50 is > 200 µM.

In the case of `O=C(O)Cc1cccc2c(=O)c3cccc([N+](=O)[O-])c3[nH]c12`, the EC50 was > 200 µM and the IC50 is 102 µM.

Take `CC(C)C1=CC23CCC4C(C)(C(=O)O)CCCC4(C)C2CC1C1C(=O)N(c2cccc(N4C(=O)C5C6CC7C8(C)CCCC(C)(C(=O)O)C8CCC7(C=C6C(C)C)C5C4=O)c2)C(=O)C13` (stereo not drawn): the EC50 is > 269 µM and the IC50 came out at 13.2 µM.

Take `Cc1cn(CCCCCOC(=O)NC(CCCN=C(N)N)C(=O)O)c(=O)[nH]c1=O` (stereo not drawn): the EC50 is > 200 µM and the IC50 amounted to 18.2 µM.

As to `CSCCC(NC(=O)Cc1ccc(C(=O)c2ccccc2)cc1)C(=O)O` (stereo not drawn), the EC50 is > 200 µM and the IC50 is > 200 µM.

Turning to `COc1nc(NC2OCC(O)C(O)C2O)cc(=O)n1C` (stereo not drawn), the result was inactive.

As for `O=c1c2c(-c3ccccc3)c3ccccc3nc2cnn1-c1ccccc1`, the EC50 is > 79.4 µM and the IC50 is > 79.4 µM.

`CC1=Nc2ccccc2SC2(C1)C(C1COC(C)(C)O1)OC1OC(C)(C)OC12` (stereo not drawn): the EC50 is > 74.1 µM and the IC50 stood at 63.1 µM.

With `O=[N+]([O-])c1cc(Cl)ccc1S(=O)(=O)N1CCCc2cc(Cl)ccc21`, the EC50 was > 200 µM and the IC50 amounted to 30.2 µM.

For the compound `S=C(NC1=NCC(CN2CCN(c3ccccc3)CC2)O1)Nc1ccccc1` (stereo not drawn), the EC50 is > 200 µM and the IC50 was 45.7 µM.

`N#C/C=C\c1ccc(C#N)cc1`: the EC50 is > 64.6 µM and the IC50 was > 64.6 µM.

In the case of `C/C(=N\N(C)C)C(CN(C)C)C(c1ccccc1)c1c(O)c2ccccc2oc1=O` (stereo not drawn), the EC50 is > 100 µM and the IC50 came to 91.2 µM.

In the case of `NC(=S)N/N=C/c1cccc(CC(O)(C(F)(F)F)C(F)(F)F)n1`, the EC50 is > 200 µM and the IC50 was 5.89 µM.

As to `C=CCNC(=S)Nc1ccc(Cl)cc1`, the EC50 was > 200 µM and the IC50 is 120 µM.

In the case of `CCSC1=C(C)N(C=NC(C)(C)C)CC1`, the EC50 was > 1100 µM and the IC50 was > 1100 µM.

Take `CC1(C)N=C(C(N)=O)c2ncn(CCO)c2N1`: the EC50 was > 200 µM and the half-inhibitory concentration (IC50) is > 200 µM.

Consider `c1ccc(CN2CCC(=NN3CCCCC3)CC2)cc1`, for which the EC50 is > 200 µM and the IC50 was 89.1 µM.

As to `CCOC(=O)CCC(NC(=O)c1ccc(Nc2cnc3ccc(C(F)(F)F)cc3n2)cc1)C(=O)OCC` (stereo not drawn), the EC50 is > 200 µM and the IC50 came out at 18.6 µM.

For `OC12CCC[N+]1(Cc1ccccc1)CCC2` (stereo not drawn), the EC50 was > 794 µM and the IC50 turned out to be 708 µM.

With `C=CC[C@@]12CC(C=CC13OCCO3)OC(=O)[C@@H]2C`, the EC50 is > 200 µM and the IC50 is > 200 µM.

`O=S(=O)(O)c1ccc(O)c2ncc(Cl)cc12`: the EC50 was > 200 µM and the IC50 is > 200 µM.

In the case of `CC(=O)OC[C@H]1O[C@@H](O[C@H]2[C@H](OC(C)=O)C=CO[C@@H]2COC(C)=O)C(OC(C)=O)[C@H]2OC(C)(C)O[C@H]21` (stereo partly drawn), the EC50 was > 200 µM and the IC50 was found to be 69.2 µM.

Turning to `CCOc1ccccc1NC(=O)CC1SC(=Nc2ccc([N+](=O)[O-])cc2)NC1=O` (stereo not drawn), the EC50 was > 229 µM and the IC50 came to 93.3 µM.

As to `CN(Cc1cnc2nc(N)nc(N)c2n1)c1ccc(C(=O)NC(CCC(=O)NC(P(=O)(O)O)P(=O)(O)O)C(=O)O)cc1` (stereo not drawn), the EC50 was > 200 µM and the IC50 worked out at 11.2 µM.

For the compound `ONC1=Nc2cc(Cl)ccc2C(=S)N2CSCC12` (stereo not drawn), the EC50 is > 200 µM and the IC50 is > 200 µM.

Turning to `O=c1n(N=S(=O)(c2ccccc2)c2ccccc2)c(=O)n2n1C1C=CC2CC1`, the EC50 was > 200 µM and the IC50 is > 200 µM.

As for `CCOC(=O)c1nc2ccccc2nc1Oc1cc(OC)cc(OC)c1`, the EC50 was > 200 µM and the IC50 is > 200 µM.

As for `CCCCCCCCCCCCOC(=S)NCCCC`, the result was inactive.

Take `O=[N+]([O-])c1ccc(SSc2ccc([N+](=O)[O-])cc2)cc1`: the EC50 was > 200 µM, the result was inactive and the IC50 was determined as 24 µM.

For `CC1=C(C#N)C(C#N)(C#N)C(NN(C)C)C1` (stereo not drawn), the EC50 was > 200 µM and the IC50 was 3.8 µM.

Consider `C/C=C/[C@@]1(OC(=O)c2ccccc2)C[C@@H]2CCCC[C@@H]21`, for which the outcome was inactive.

With `CN(NC(=O)c1ccco1)C1=NCCCCN1`, the EC50 is > 200 µM and the IC50 is > 200 µM.

`CC12CCC3CCCCC3(OO1)[C@@H](OCc1ccccc1)O2` (stereo partly drawn): the EC50 is > 29.5 µM and the IC50 is > 29.5 µM.

In the case of `CS(=O)(=O)NNS(=O)(=O)c1cccc([N+](=O)[O-])c1`, the EC50 is > 617 µM and the IC50 was > 617 µM.

For `CN1CC[C@@H](O)C(CNC23CC4CC(CC(C4)C2)C3)C1` (stereo partly drawn), the EC50 is > 200 µM and the IC50 is > 200 µM.

Regarding `CCc1cc(CCC(=O)Nc2c(C)cccc2C)nc(NC#N)n1`, the outcome was inactive.

As to `COc1cc2nncc(SCc3ccc(Cl)cc3)c2cc1OC`, the EC50 is > 77.6 µM and the IC50 was > 77.6 µM.
